Results taken from patent publication US6812213B2, “Steroidal sapogenins and their derivatives for treating alzheimer's disease” (Phytopharm, plc, priority 1998, dated 2004).
“And” between values parts separate entries of the source, which are not always exact repeats. Equal entries are not always repeated.

Legend:
[1] = tested on: m2 receptors on CHO cells; experiment: Expression of m2 receptors on transfected CHO cells (tritiated QNB binding); format: cell-based; conditions: DMSO control
Description: 1. Chinese hamster ovary (CHO) cells transfected with the a DNA fragment coding for a muscarinic receptor. The cell line used for the majority of the experiments was a cell line expressing the m2 receptor.
The effects of various compounds on the expression of m2 receptors on CHO cells transfected with DNA for the m2 receptor were investigated. Receptor numbers were assayed using tritiated QNB binding and subtracting non-specific binding. Compounds were dissolved in DMSO and DMSO was used as a control. Compounds were tested at a range of final concentrations. Compounds were also tested in the presence and absence of tamoxifen to try to distinguish an oestrogen receptor mediated mechanism.

oestrogen receptor = experiment: Oestrogenic effects of steroid sapogenin compounds
Excerpt: In identifying compounds that would have use in the treatment of SDAT and other diseases characterised by reductions in receptor numbers or synaptic transmission, the inventors have given consideration to the need to identify compounds that would have the desired effect but would be devoid of any oestrogenic effects, as these would be unacceptable, particularly in male patients. A number of the compounds claimed to have activity in patent application DE 4303214A1 have marked oestrogenic activity and are therefore unacceptable.
In addition these compounds were tested at other steroid receptors as it was considered that compounds that would be of clinical sue should have no effects at the other steroid receptors.

[2] = tested on: known steroidal receptors; experiment: Binding to known steroidal receptors
β-adrenergic receptors = conditions: Chinese Patent No. CN1096031A; cited from earlier work
[3] = tested on: muscarinic receptors on cultured cardiac muscle cells; experiment: Muscarinic receptor expression on cultured neonatal cardiac muscle cells (tritiated QNB); format: cell-based, Sprague Dawley rats
Description: 3. Cultured cardiac muscle cells obtained from neonatal Sprague Dawley rats. The cardiac muscle cells express muscarinic receptors, typically m2. The level of these receptors falls on prolonged culture and the effects of compounds of interest in preventing the fall in receptor numbers was investigated.
Cardiac muscle cells were isolated from the ventricular muscle of neonatal Sprague Dawley rats using standard techniques. Cells were cultured in vitro and muscarinic receptor numbers expressed on cell surfaces membrane fragments after homogenisation of cells harvested at various time points were estimated using specific binding of tritiated QNB. […] The experiments were therefore designed to investigate the effects of the various compounds in inhibiting this decline in receptor numbers.

[4] = tested on: major known classes of membrane bound receptor; experiment: Direct binding to major known classes of membrane bound receptor
Excerpt: Thus it can be postulated that the observed effects are probably not due to for instance an effect at the nicotinic receptor and a consequential increase in the number of muscarinic receptors. This explanation appears to be even less plausible (although it cannot be excluded) if one considers that certain of the compounds have also been shown by the inventors to increase the number of beta adrenergic receptors expressed on peripheral blood lymphocytes. Thus the mechanism would appear to be one which has a more general effect on the regulation of membrane bound receptors.

m1 receptor mRNA = m1 receptor mRNA levels in brain by in situ hybridisation; format: in vivo, SD rats; conditions: for m1 receptor mRNA, comparison SaG vs Aged: 3 mg sarsasapogenin per rat per day in feed, four months, positive means increased
Description: 20 months old pure-line male SD rats were divided randomly into 2 groups. One group received an average of 3 mg of sarsasapogenin per rat per day mixed into the daily feed. The control group received normal food and water. Four months later, their brains were used in hybridisation technique experiments, with 4 to 6 months old rats used as a young control group. Other feeding arrangements for each group were completely identical.
A cDNA chain which respectively corresponds to the maNA of both m1 and m2 was synthesised, m1 corresponds to the 3-18 amino acid sequence of receptor protein, i.e. TGGTGCCAAGACAGTGATGTTGGGACTGACAGCAGGGGGCACTGAGGT, and M2 to the 1-16 amino acid sequence, i.e. ATGAATAACTCAACAAACTCCTCGAACAATGGCTTGGCTATTACCAGT. The cDNA was labelled using a 3′-terminal-label reagent kit with a-^35S-dATP (8.9 TBq/mmol) as the label material. After the reaction had finished, it was purified with a nucleotide column. The specific activity of the batch was estimated (16.67-33.34)×108 MBq/μg. a-^35S-dATP, 3′-terminal-label reagent kit and nucleotide column were obtained from Du Pont Co., USA.
One rat was obtained from each group each time and parallel experiments were performed. The rats were decapitated and their brains removed intact. 15 μm thick coronal slices were prepared in a constantly freezing cryo-microtome (AS-600 cryo-microtome, Anglia Scientific Co, UK). Slices were taken from different areas (identical places for each rat) and were mounted on slides smeared with polylysine, dried in a cool current of air, fixed in a solution of 4% paraformaldehyde (containing 1×phosphate buffer saline (PBS), pH 7.0) for 5 minutes before being washed twice in PBS. They were then placed in 0.25% acetic anhydride solution (containing 0.1 M triethanolamine hydrochloride, Ph 8.0, and 0.9% sodium chloride) for 10 minutes, dehydrated in 70%, 80%, 95%, and 100% ethyl alcohol for 1 minute, degreased in chloroform for 5 minutes, and finally treated in 100% and 95% ethyl alcohol for 1 minute successively.
Slices used as negative controls were taken and dehydrated in ethyl alcohol etc. as detailed above, but treated in advance in 100 mg m1 RNase and 2×SSC solution (salt/sodium citrate solution containing 300 mmol/L sodium chloride and […] sodium citrate) for 2 hours at 37° C. […]
Autoradiographs were prepared in a dark room, the specimen and the hyperfilm beta max being pressed together using the contact method and placed in a cassette with a desiccant, exposed at 4° C. for 2 to 3 weeks. […] Finally, the autoradiographs were analysed using a computerised image analyser (VIDAS imaging analyser, Kontron, Germany).

M1 cholinergic receptors = conditions: Chinese Patent No. CN1096031A; cited from earlier work
[5] = Molar concentration of compound 10^−5

Row | Compound | Effect on receptor expression—given as % increase compared to control (negative values in brackets) [1, 5] [%] | Oestrogenic Activity (oestrogen receptor) | Concentration of compound causing a significant increase in number of receptors expressed on neonatal cardiac muscle after 10 days in vitro culture [3] | other results
1 | Sarsasapogenin | 34 | Negative | 10^−5 M | binding to known steroidal receptors [2]: do not bind; regulation of β-adrenergic receptors (β-adrenergic receptors): down-regulate; direct binding to membrane bound receptors [4]: not to bind directly; m1 receptor mRNA, comparison SaG vs Aged (m1 receptor mRNA; Cortex): 5.77 ± 3.82 (20); m1 receptor mRNA, comparison SaG vs Aged (m1 receptor mRNA; Hippocampus): 0.96 ± 4.26 (10); m1 receptor mRNA, comparison SaG vs Aged (m1 receptor mRNA; Striatum, p < 0.01, listed as SaG): significant increase and 15.71 ± 3.27 (10); levels of M receptor mRNA (m1 receptor mRNA; rats treated with SaG): raised; regulation of M1 cholinergic receptors (M1 cholinergic receptors): up-regulate
2 | C[C@@H]1CC[C@@]2(OC1)O[C@H]1C[C@H]3[C@@H]4CC=C5C[C@@H](O)C[C@@H](O)[C@]5(C)[C@H]4CC[C@]3(C)[C@H]1[C@@H]2C [Ruscogenin] | – | Positive | – | –
3 | Astragaloside | – | Negative | 10^−5 M | –
4 | C[C@@H]1CC[C@@]2(OC1)O[C@H]1C[C@H]3[C@@H]4C[C@@H](O)[C@@]5(O)C[C@@H](O)CC[C@]5(C)[C@H]4CC[C@]3(C)[C@H]1[C@@H]2C [Anzurogenin D] | 22 | Negative | 10^−6 M | –
5 | Tigogenin | – | Negative | – | –
6 | Smilagenin | 57 | Negative | 10^−6 M | Effect on receptor expression—given as % increase compared to control (negative values in brackets) ([1]; Molar concentration of compound 10^−6): 18%
7 | C[C@@H]1CC[C@@]2(OC1)O[C@H]1C[C@H]3[C@@H]4CC=C5C[C@@H](O)CC[C@]5(C)[C@H]4CC[C@]3(C)[C@H]1[C@@H]2C [Diosgenin] | – | Positive | – | –
